Molecules are shown by their SMILES. Entries after “also recorded” stand apart in the source; their conditions may differ.

The subject of data set [1] is C2C12 cells. Description: Statin-reduced myogenesis of C2C12 cells with or without Simvastatin. Type of data set: cell-based, murine. The following applies: C2C12, 44 hours; for myoblast differentiation / myogenesis in the presence of Simvastatin: FIG. 5. The text has this: It is estimated that 10-15% of individuals who take statins-related compounds develop statin-related muscle adverse effects, ranging from mild myalgia to more severed muscle symptoms while the mechanism of statin-induced myopathy remains undetermined. In vitro myogenesis, statins-related compounds reduce in vitro myogenesis and stable adhesion of myotubes. Thus, it was examined whether GlcNAc treatment has any significant effect on the statin-reduced myogenesis. Myogenesis of murine myoblast cells, C2C12 cells was induced by replacing the medium from growing medium to differentiation medium as above DMEM in the presence or absence of different doses of N-acetylglucosamine (GlcNAc) with or without Simvastatin for 44 hours. Cells were then fixed in 3.8% paraformaldehyde containing phosphate buffered saline (PBS) for 15 min. Then cells were permeabilized by PBS-0.25% Triton X100 for 5 min. After washed with PBS, the cells were incubated with anti-MHC antibody (Clone MF-20, 2.5 μg/ml) in the blocking agents (Vectors laboratories) for an hour, followed by anti-mouse antibody labelled with Alex 488. Then nuclei of the cells were stained with DAPI. Fluorescent images were taken through 20× objectives by using Queorum WaveFX spinning Disc confocal system.

The subject of data set [2] is C2C12 cells. Description: Myogenesis of murine myoblast C2C12 cells (MHC-positive multinucleated myotubes, immunofluorescence). It counts as cell-based. The following applies: for myogenesis (GlcNAc vs glucosamine): C2C12, different doses, FIGS. 4A-4F; for number of multinuclear MHC expressing myotubes: C2C12, differentiation stopped after 72 hours. On the procedure: (§1) N-Acetylglucosamine promotes myogenesis of murine myoblasts: Myogenesis of murine myoblast cells, C2C12 cells was induced by replacing the medium from growing medium (DMEM supplemented with 10% fetal calf serum) to DMEM supplemented with 1% horse serum, insulin (10 μg/ml), transferrin (5.5 μg/ml) and selenium (5 ng/ml) in the presence or absence of different doses of N-acetylglucosamine (GlcNAc). This condition induces the differentiation of myoblasts, including the induction of the synthesis of myosine heavy chains (MHC). Then myoblasts start fusing with each other to form myotubes, which are multinucleated. Cells were fixed in 3.8% paraformaldehyde containing phosphate buffered saline (PBS) for 15 min. Then cells were permeabilized by PBS-0.25% Triton X100 for 5 min. After washed with PBS, the cells were incubated with anti-MHC antibody (Clone MF-20, 2.5 μg/ml) in the blocking agents (Vectors laboratories) for an hour, followed by anti-mouse antibody labelled with Alex 488. Then nuclei of the cells were stained with DAPI. Fluorescent images were taken through 20× objectives by using Queorum WaveFX spinning Disc confocal system.
In the condition shown in FIG. 1, the myogenesis was stopped after the differentiation for 72 hours, which was 18 hours after the presence of myotubes became detectable. […] In FIGS. 2A and 2B, the differentiation was stopped at 62 hours. Fields of view (5×5 FOVs) are stitched together and shown here. One FOV is 0.533 mm square. White color is MHC-positive myotube cells.
as §1, with “Glucosamine is a commercially available supplement, which has been claimed to reduce arthritic pain, although there is any scientific evidence to support this claim. It was examined whether glucosamine has any significant effect on the myogenesis.” for “N-Acetylglucosamine promotes myogenesis of murine myoblasts:”, “(GlcNAc) or glucosamine.” for “(GlcNAc).”, “fusing” for “fusing with”, “PBS—0.25%” for “PBS-0.25%”

The conditions of data set [3]: human, long-term oral administration; cited from earlier work.
The test system of data set [4] is Myoblasts derived from a patient of DM1. Description: Myogenesis of myoblasts derived from a patient of myotonic dystrophy 1. Type of data set: cell-based, human. The following applies: after 120 hours of differentiation, FIG. 3. How it is done: It is known that myogenesis is impaired in myotonic dystrophy 1 (DM1). The therapeutic potential of GlcNAc on this impaired myogenesis was thus tested. Myoblasts derived from a patient of DM1 were grown in DMEM supplemented with 20% fetal calf serum till the density of cells reached to 90% confluency. Then, the differentiation was induced by changing the medium to DMEM supplemented with 1% fetal calf serum, 10 μg/ml insulin, and 100 μg/ml apotransferrin. After 120 hours, cells were fixed and MHC in the cells were visualized by the method described in Example 1.

Data set [5] concerns C2C12 cells. Description: Myogenesis of murine myoblast C2C12 cells (MHC-positive multinucleated myotubes, immunofluorescence). Type of data set: cell-based. Particulars: FIG. 4.

For `CC(=O)N[C@H]1C(O)O[C@H](CO)[C@@H](O)[C@@H]1O` (stereo partly drawn) [GlcNAc, N-acetylglucosamine], the results for the “myoblast differentiation / myogenesis in the presence of Simvastatin” value in the data set with C2C12 cells [1] and in the data set with C2C12 cells [1] (listed as N-acetylglucosamine) were “renders myoblast appropriate differentiation even in the presence of Simvastatin” and “restores the myogenesis that is partially impaired by statin”, respectively. Moreover, the adhesion of myotubes result in the data set with C2C12 cells [1] (with Simvastatin, preliminary data not shown) was “stabilizes the adhesion of myotubes”. Further, the “myogenesis (GlcNAc vs glucosamine)” value in the data set on C2C12 cells [2] was “Promotes the Myogenesis”; with C2C12 cells [2] (listed as N-acetylglucosamine) it was “increases the formation of myotubes”. In addition, the “number of multinuclear MHC expressing myotubes” value with C2C12 cells [2] (FIG. 1) is reported as “increases the number of multinuclear MHC expressing myotubes”; in the data set with C2C12 cells [2] (FIG. 1, listed as N-acetylglucosamine), “increase of myogenesis of mouse myoblasts”. Also, the “number, length and width of myotubes” value in the data set on C2C12 cells [2] (C2C12, differentiation stopped at 62 hours, FIGS. 2A and 2B) is “increased not only the number of multinuclear MHC expressing myotubes but also the length and width of the myotubes”. The “myogenesis of C2C12 cells” value in the data set on C2C12 cells [2] (dose of 0.2 mM, 72 hours, FIG. 1) is recorded as “promotes myogenesis of C2C12 cells”. In addition, the adverse effect entry in data set [3] was “not to have any significant adverse effect”. The “myogenesis of human myoblasts of DM1” value in data set [4] is listed as “promote the myogenesis of human myoblasts of DM1”; in data set [4] (listed as N-acetylglucosamine), “increase of the myogenesis of human myoblasts”.

`CCC(C)(C)C(=O)O[C@H]1C[C@@H](C)C=C2C=C[C@H](C)[C@H](CC[C@@H]3C[C@@H](O)CC(=O)O3)[C@H]21` [Simvastatin, reference compound]: the “formation of myotube in the presence of Simvastatin alone” value in the data set with C2C12 cells [1] was “the formation of myotube was reduced”.

Take `N[C@H]1C(O)O[C@H](CO)[C@@H](O)[C@@H]1O` (stereo partly drawn) [glucosamine]: in the data set on C2C12 cells [2], the “myogenesis (GlcNAc vs glucosamine)” value is on record as “fails to promote the myogenesis; also recorded: inhibition of myogenesis; also recorded: fails to induce any positive impact on the myogenesis”. Besides, in the data set on C2C12 cells [5], the cell toxicity result is listed as “showed toxicity to the myotubes; also recorded: induce cell toxicity”.

(Values after patent publication US10912787B2, “Use of N-acetylglucosamine and derivatives thereof to treat muscle disorders” (PUREPHARM INC., priority 2017, dated 2021).)
